From publication PMC7083880 (Nature Communications, 2020)

Key:
[1] = tested on: p53 target gene p21 in Calu-6 cells; experiment: p21 mRNA level by quantitative RT-PCR, Calu-6; type: cell-based, human
Source text: The three leftmost lanes show twofold serial dilutions of untreated HeLa cell extract. The molecular weight is indicated to the left of each gel. b Schematic representation of the construct used to measure the function of p53. The construct carries a cDNA encoding the firefly luciferase under a promoter having two p53-responsive elements (underlined). […] The level of p21 mRNA is related to the amount of functional p53 protein synthesized in the cell. The results presented in panels b and c are representative of at least two independent experiments., p-values (p) were calculated using Student’s t-test. Source data are provided as a Source Data file.
Although DAP clearly promoted the synthesis of full-length proteins from UGA-nonsense-mutation-containing mRNAs, it was necessary to ascertain that the readthrough protein was functional. […] The first involved measuring the transcriptional activity of the p53 readthrough protein in Calu-6 cells transfected with an expression vector carrying the cDNA encoding firefly luciferase under the control of a promoter with two p53-responsive elements (Fig. 2b)[33]. Upon DMSO treatment, only basal luciferase activity was detected, reflecting promoter leakage (Fig. 2c). […] The second assay used the p53 target gene p21 (ref. [44]).
RNA was purified using RNazol (MRC) according to the manufacturer’s instructions. 1/5 of the RNA preparation was used for reverse-transcription (RT) PCR (RT-PCR) using Superscript II (Life Technologies) for 2 h at 42 °C in the presence of random hexamers. The resulting cDNAs were PCR amplified in the presence of dCTP(α^33P) (Perkin Elmer) with the following primers: GAPDH mRNA (sense: 5′-[…]-3′; antisense: 5′-[…]-3′), p53 mRNA (sense: 5′-[…]-3′; antisense: 5′-[…]-3′), p21 mRNA (sense: 5′-[…]-3′; antisense: 5′-[…]-3′). PCR products were quantified with Personal Molecular Imager and QuantityOne quantification software (Bio-Rad).

[2] = biological target: T1, CTU1 (Homo sapiens, UniProt Q7Z7A3); experiment: UGA readthrough luciferase assay with CTU1 overexpression; type: cell-based;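 for luciferase activity, average: DAP exposure for 24 h before luciferase measurement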;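 for luciferase activity, exp2: DAP exposure for 24 h before luciferase measurement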
T1 construct: host or cells: HeLa
T1 sequence (Q7Z7A3 1-348): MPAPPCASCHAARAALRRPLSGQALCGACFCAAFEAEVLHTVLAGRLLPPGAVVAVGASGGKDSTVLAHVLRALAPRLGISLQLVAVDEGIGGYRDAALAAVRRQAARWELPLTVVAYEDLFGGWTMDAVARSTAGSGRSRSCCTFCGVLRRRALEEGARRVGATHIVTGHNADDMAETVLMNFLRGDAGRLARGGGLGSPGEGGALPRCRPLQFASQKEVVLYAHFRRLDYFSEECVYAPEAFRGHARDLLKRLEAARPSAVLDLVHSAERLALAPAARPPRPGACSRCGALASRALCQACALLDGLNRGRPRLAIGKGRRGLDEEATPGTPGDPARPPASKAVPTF
Source text: Firefly luciferase from HEK293FT cells transfected with the Fluc-int-UGA construct was immunoprecipitated and digested with trypsin. The MS/MS spectrum of the peptide containing the PTC position and the sequence determination are shown. The upper red and blue sequences indicate the amino acids validated, respectively, by detection of Nter and Cter peptide fragments (b and y ion series). Peptide fragments y6 and y7 clearly identify tryptophan (W) at the PTC position. The black peaks correspond to non-attributed mass-to-charge ratio (m/z) values. […] Readthrough efficiency was determined by measuring luciferase activity in HeLa cells co-transfected with the firefly luciferase construct described in Fig. 1b and with increasing amounts of an expression vector for either FTSJ1 or CTU1 (0.5, 1, or 2 µg). The empty expression vector (E.v.) was used as control. […] The experiment was performed twice and the results of both experiments (Exp1 and Exp2) are shown. c Western blot analysis of FTSJ1 and CTU1. d 2′-O-methylation analysis of tRNA^Trp, tRNA^SER, and tRNA^GLN by RiboMethSeq. […] A molecular weight marker is indicated to the left of each gel. p-values (p) were calculated using Student’s t-test. Source data are provided as a Source Data file.
Among the enzymes modifying tRNAs liable to recognize a stop codon by extended wobbling, human FTSJ1 (TRM7 in yeast) exclusively modifies tRNAs involved in UGA readthrough. In addition to other tRNA targets, FTSJ1 methylates the cytosine at position 34 of tRNA^Trp. Inhibition of this modification could increase the capacity of tRNA^Trp to misdecode and recognize the UGA stop codon. […] FTSJ1 and CTU1 overexpression were assessed by western-blot analysis (Fig. 5c).

Nc1nc(N)c2[nH]cnc2n1 [DAP, 2,6-diaminopurine]
Level of endogenous p21 mRNA, in words [1]: increase significantly
Level of p21 mRNA (DMSO = 1) ([1]; 6.25µM, average): 1.751
Level of p21 mRNA (DMSO = 1) ([1]; 6.25µM, experiment 1): 2.112
Level of p21 mRNA (DMSO = 1) ([1]; 6.25µM, experiment 2): 1.8
Level of p21 mRNA (DMSO = 1) ([1]; 25µM, average): 2.148
Level of p21 mRNA (DMSO = 1) ([1]; 25µM, experiment 1): 1.8674
Level of p21 mRNA (DMSO = 1) ([1]; 25µM, experiment 2): 2.071
Level of p21 mRNA (DMSO = 1) ([1]; 25µM, experiment 3): 2.507
luciferase activity, average ([2]; 0.5µg CTU1, 0.39µM): 1294.38
luciferase activity, exp1 ([2]; 0.5µg CTU1, 0.39µM): 850.5
luciferase activity, exp1*1,5 ([2]; 0.5µg CTU1, 0.39µM): 1275.75
luciferase activity, exp2 ([2]; 0.5µg CTU1, 0.39µM): 1313
luciferase activity, average ([2]; 0.5µg CTU1, 0.78µM): 1925.25
luciferase activity, exp1 ([2]; 0.5µg CTU1, 0.78µM): 1235
luciferase activity, exp1*1,5 ([2]; 0.5µg CTU1, 0.78µM): 1852.5
luciferase activity, exp2 ([2]; 0.5µg CTU1, 0.78µM): 1998
luciferase activity, average ([2]; 0.5µg CTU1, 1.56µM): 3744.75
luciferase activity, exp1 ([2]; 0.5µg CTU1, 1.56µM): 2474
luciferase activity, exp1*1,5 ([2]; 0.5µg CTU1, 1.56µM): 3711
luciferase activity, exp2 ([2]; 0.5µg CTU1, 1.56µM): 3778.5
luciferase activity, average ([2]; 0.5µg CTU1, 6.25µM): 19050.9
luciferase activity, exp1 ([2]; 0.5µg CTU1, 6.25µM): 10689.5
luciferase activity, exp1*1,5 ([2]; 0.5µg CTU1, 6.25µM): 16034.2
luciferase activity, exp2 ([2]; 0.5µg CTU1, 6.25µM): 22067.5
luciferase activity, average ([2]; 0.5µg CTU1, 25µM): 76730.1
luciferase activity, exp1 ([2]; 0.5µg CTU1, 25µM): 40518.5
luciferase activity, exp1*1,5 ([2]; 0.5µg CTU1, 25µM): 60777.8
luciferase activity, exp2 ([2]; 0.5µg CTU1, 25µM): 92682.5
luciferase activity, average ([2]; 0.5µg CTU1, 100µM): 153887
luciferase activity, exp1 ([2]; 0.5µg CTU1, 100µM): 108746
luciferase activity, exp1*1,5 ([2]; 0.5µg CTU1, 100µM): 163120
luciferase activity, exp2 ([2]; 0.5µg CTU1, 100µM): 144654
luciferase activity, average ([2]; 0.5µg CTU1, 300µM): 196559
luciferase activity, exp1 ([2]; 0.5µg CTU1, 300µM): 113240
luciferase activity, exp1*1,5 ([2]; 0.5µg CTU1, 300µM): 169861
luciferase activity, exp2 ([2]; 0.5µg CTU1, 300µM): 223256
luciferase activity, average ([2]; 0.5µg CTU1, 600µM): 155354
luciferase activity, exp1 ([2]; 0.5µg CTU1, 600µM): 75601
luciferase activity, exp1*1,5 ([2]; 0.5µg CTU1, 600µM): 113402
luciferase activity, exp2 ([2]; 0.5µg CTU1, 600µM): 197306
luciferase activity, average ([2]; 1µg CTU1, 0.39µM): 1209.75
luciferase activity, exp1 ([2]; 1µg CTU1, 0.39µM): 816
luciferase activity, exp1*1,5 ([2]; 1µg CTU1, 0.39µM): 1224
luciferase activity, exp2 ([2]; 1µg CTU1, 0.39µM): 1195.5
luciferase activity, average ([2]; 1µg CTU1, 0.78µM): 1705.88
luciferase activity, exp1 ([2]; 1µg CTU1, 0.78µM): 1099.5
luciferase activity, exp1*1,5 ([2]; 1µg CTU1, 0.78µM): 1649.25
luciferase activity, exp2 ([2]; 1µg CTU1, 0.78µM): 1762.5
luciferase activity, average ([2]; 1µg CTU1, 1.56µM): 3430.38
luciferase activity, exp1 ([2]; 1µg CTU1, 1.56µM): 2700.5
luciferase activity, exp1*1,5 ([2]; 1µg CTU1, 1.56µM): 4050.75
luciferase activity, exp2 ([2]; 1µg CTU1, 1.56µM): 2810
luciferase activity, average ([2]; 1µg CTU1, 6.25µM): 22021
luciferase activity, exp1 ([2]; 1µg CTU1, 6.25µM): 11418
luciferase activity, exp1*1,5 ([2]; 1µg CTU1, 6.25µM): 17127
luciferase activity, exp2 ([2]; 1µg CTU1, 6.25µM): 26915
luciferase activity, average ([2]; 1µg CTU1, 25µM): 66719.5
luciferase activity, exp1 ([2]; 1µg CTU1, 25µM): 39882
luciferase activity, exp1*1,5 ([2]; 1µg CTU1, 25µM): 59823
luciferase activity, exp2 ([2]; 1µg CTU1, 25µM): 73616
luciferase activity, average ([2]; 1µg CTU1, 100µM): 131546
luciferase activity, exp1 ([2]; 1µg CTU1, 100µM): 100876
luciferase activity, exp1*1,5 ([2]; 1µg CTU1, 100µM): 151313
luciferase activity, exp2 ([2]; 1µg CTU1, 100µM): 111779
luciferase activity, average ([2]; 1µg CTU1, 300µM): 187075
luciferase activity, exp1 ([2]; 1µg CTU1, 300µM): 116534
luciferase activity, exp1*1,5 ([2]; 1µg CTU1, 300µM): 174802
luciferase activity, exp2 ([2]; 1µg CTU1, 300µM): 199348
luciferase activity, average ([2]; 1µg CTU1, 600µM): 146715
luciferase activity, exp1 ([2]; 1µg CTU1, 600µM): 78978
luciferase activity, exp1*1,5 ([2]; 1µg CTU1, 600µM): 118467
luciferase activity, exp2 ([2]; 1µg CTU1, 600µM): 174963
luciferase activity, average ([2]; 2µg CTU1, 0.39µM): 1088.5
luciferase activity, exp1 ([2]; 2µg CTU1, 0.39µM): 733
luciferase activity, exp1*1,5 ([2]; 2µg CTU1, 0.39µM): 1099.5
luciferase activity, exp2 ([2]; 2µg CTU1, 0.39µM): 1077.5
luciferase activity, average ([2]; 2µg CTU1, 0.78µM): 1344.88
luciferase activity, exp1 ([2]; 2µg CTU1, 0.78µM): 885.5
luciferase activity, exp1*1,5 ([2]; 2µg CTU1, 0.78µM): 1328.25
luciferase activity, exp2 ([2]; 2µg CTU1, 0.78µM): 1361.5
luciferase activity, average ([2]; 2µg CTU1, 1.56µM): 2818.25
luciferase activity, exp1 ([2]; 2µg CTU1, 1.56µM): 1937
luciferase activity, exp1*1,5 ([2]; 2µg CTU1, 1.56µM): 2905.5
luciferase activity, exp2 ([2]; 2µg CTU1, 1.56µM): 2731
luciferase activity, average ([2]; 2µg CTU1, 6.25µM): 9528.62
luciferase activity, exp1 ([2]; 2µg CTU1, 6.25µM): 6020.5
luciferase activity, exp1*1,5 ([2]; 2µg CTU1, 6.25µM): 9030.75
luciferase activity, exp2 ([2]; 2µg CTU1, 6.25µM): 10026.5
luciferase activity, average ([2]; 2µg CTU1, 25µM): 42062.1
luciferase activity, exp1 ([2]; 2µg CTU1, 25µM): 22665.5
luciferase activity, exp1*1,5 ([2]; 2µg CTU1, 25µM): 33998.2
luciferase activity, exp2 ([2]; 2µg CTU1, 25µM): 50126
luciferase activity, average ([2]; 2µg CTU1, 100µM): 109330
luciferase activity, exp1 ([2]; 2µg CTU1, 100µM): 66277.5
luciferase activity, exp1*1,5 ([2]; 2µg CTU1, 100µM): 99416.2
luciferase activity, exp2 ([2]; 2µg CTU1, 100µM): 119244
luciferase activity, average ([2]; 2µg CTU1, 300µM): 143657
luciferase activity, exp1 ([2]; 2µg CTU1, 300µM): 87747.5
luciferase activity, exp1*1,5 ([2]; 2µg CTU1, 300µM): 131621
luciferase activity, exp2 ([2]; 2µg CTU1, 300µM): 155692
luciferase activity, average ([2]; 2µg CTU1, 600µM): 121237
luciferase activity, exp1 ([2]; 2µg CTU1, 600µM): 66046
luciferase activity, exp1*1,5 ([2]; 2µg CTU1, 600µM): 99069
luciferase activity, exp2 ([2]; 2µg CTU1, 600µM): 143406
